Measured values reported in patent US7855188B2, “Quarternized amino glucosamine compound for exerting anticancer effect” (Pukyong National University Industry-Academic Cooperation …, priority 2006, dated 2010).

What was measured:
p53 = test: RT-PCR of p53 mRNA; assay type: cell-based, mouse; details: B16F1 cells
Experimental: (§1) B16F1 cells were treated with QAGlc and total RNA was extracted. PCR was carried out using RT-generated cDNA encoding p53, p21 and GSPDH with their specific primers to amplify p53 and G3PDH mRNA. PCR products were analyzed on a 2% agarose gel. The mRNA of G3PDH served as an internal control for sample loading and mRNA integrity. The result was represented in FIG. 5.

B16F1 cells [1] = test: FACS analysis of apoptotic cells; assay type: cell-based, mouse
phospho p53 protein = test: Western blot analysis of phospho p53; assay type: cell-based, mouse; details: B16F1 cells; different time intervals
Experimental: After treatment of QAGlc for different time intervals, cells were lysed in RIPA buffer [10 mmol Tris-HCL (pH 7.4), 1% deoxycholate, 1% NP40, 150 mmol NaCl, 0.1% SDS, 0.2 mmol phenylmethyl sulfonyl fluoride, 1 mg/L aprotinin and 1 mg/L leupeptin] for 30 min on ice. The lysates were centrifuged at 12,000×g for 15 min to remove debris. Protein samples were resolved using a […] Novex gradient gel (Invitrogen, USA), electrotransferred onto a nitrocellulose membrane, and blocked with 10% skim milk. Monoclonal antibodies of phosphorylated p-53 (Cat. No, Chemicon, CA, USA) were used to detect phosphor-p53 protein using chemiluminescent ECL assay kit (Amersham Pharmacia Biosciences, NJ, USA) according to the manufacturer's instructions. Western blot bands were quantified using ImageMaster software (Amersham Pharmacia Biosciences, NJ, USA). The result was represented in FIG. 8.

p21 gene = test: p21-Luc gene reporter assay; assay type: cell-based, mouse; details: B16F1 cells; all concentrations; compared to the control
Experimental: (§2) B16F1 cells were transfected with p53-luc, p21-Luc reporter vectors and β-galactosidase expression vector by lipofectamine (Invitrogen) transfection method. After 24 h of transfection, cells were subcultured into 24 well plates and cells treated with different concentrations of QAGlc. The luciferase activity value was normalized to transfection efficiency monitored by the cotransfected β-galactosidase expression vector. The level of induction of luciferase was determined as a ratio in comparison to cells with no stimulation. The result was represented in FIG. 6.
According to the method described above, p21 gene was transfected to B16F1 cells according to the method described above and gene expression after the treatment of QAGlc was determined by relative luciferase activity. The result was represented in FIG. 7.

[2] = tested on: colon cancer cell (SW480), lung cancer cell (A549), mouse melanoma cell (B16F1), leukemia cancer cell (HL60) and liver cancer cell (Hep3B); test: MTT cell viability assay on various cancer cells; assay type: cell-based; details: after 36 h of treatment; effect concentration dependent; serum free media
Experimental: (§3) In order to assay the cell cytotoxicity of glucosamine and quaternized amino glucosamine on colon cancer cell (SW480), lung cancer cell (A549), mouse melanoma cell (B16F1), leukemia cancer cell (HL60) and liver cancer cell (Hep3B), MTT assay was performed with different sample concentrations and incubation time intervals.
(§4) Cells were cultured in microtiter 96-well plates with serum free media and treated with different sample concentrations for varying time intervals and anticancer effect was assessed using MTT cell viability assay. The result was represented in FIG. 2. […] Moreover, the effect was concentration dependent.

p53 gene = test: p53-luc gene reporter assay; assay type: cell-based, mouse; details: B16F1 cells
Experimental: as §2

B16F1 cells [3] = test: MTT cytotoxicity assay in B16F1 cells; assay type: cell-based, mouse; details: after 48 h of incubation, concentrations below 0.01%
Experimental: as §3, §4
B16F1 cells were treated with different concentrations of quaternized amino glucosamine and cytotoxicity was determined using MTT assay. […] This effect could be confirmed when the B16F1 cells were transfected with promoter plasmids of p53 and p21 treated with different concentrations of QAGlc. Induction of phosphor p53 observed in western blot analysis further confirmed that quaternized amino glucosamine induce apoptosis via p53 dependant pathway.

B16F1 cells [4] = test: Detection of apoptosis by DNA fragmentation assay; assay type: cell-based, mouse
Experimental: In order to examine anticancer effect and mechanism of QAGlc, B16F1 cells cultured in 10 cm culture dishes were pre-treated with different concentrations of QAGlc and apoptosis was induced with 2 mM H2O2. Then, cell incubation was performed for different time periods. Cell was rinsed and total DNA was extracted with the standard procedure. DNA was electrophoresed on a 2% agarose gel and DNA fraction was visualized using ethedium bromide staining. The result was represented in FIG. 3.
B16F1 cells cultured in 10 cm culture dishes were pretreated with different concentrations of QAGlc and apoptosis was induced with 2 mM H2O2. After incubating for 48 h, genomic DNA was extracted and electrophoresed on a 2% agarose gel. The result was represented in FIG. 4.

p21 = test: RT-PCR of p21 mRNA; assay type: cell-based, mouse; details: B16F1 cells; time dependant
Experimental: as §1

[5] = after 24 h and 36 h of incubation

p21 gene expression (relative luciferase activity) (p21 gene): significantly enhanced
p53 gene expression (luciferase reporter) (p53 gene; different concentrations): up-regulated dose dependently
SMILES: C[N+](C)(C)CC(O)CNC1[C@H](O)OC(CO)[C@@H](O)[C@H]1O (stereo partly drawn) [QAGlc, quaternized amino glucosamine]
p53 transcription (p53; [5]): up-regulated
p53 transcription compared with etoposide (p53; [5]): much higher than that of etoposide
induction of p53 gene (RT-PCR products) (p53; time dependant): induction of p53 and p21 genes in time dependant manner
production of apoptotic cells (B16F1 cells [1]): increase the production of apoptotic cells
phospho p53 protein level (phospho p53 protein): increase phospho p53 protein level in a time dependant manner
anticancer effect (cell cytotoxicity, MTT) [2]: clear anticancer effect
p53 gene expression effect relative to etaposide (p53 gene; 100 μg/ml): 2 fold
anticancer effect (cytotoxicity, MTT) (B16F1 cells [3]): clear anticancer effect was observed
incubation time after which DNA damage was first observed (B16F1 cells [4]; 100 μg/ml, apoptosis induced with 2 mM H2O2): 36 h
DNA damage (DNA fragmentation) (B16F1 cells [4]; 48 h incubation, 100 μg/ml): higher DNA damage
DNA damage (DNA fragmentation) (B16F1 cells [4]; 48 h incubation, different concentrations, 2 mM H2O2): higher DNA damage dose-dependently
DNA damage (DNA fragmentation) (B16F1 cells [4]; prolonged incubation (after 36 h), all tested concentrations): clear effect DNA damage by all the tested concentrations dose-dependently
induction of p21 gene (RT-PCR products) (p21): induction of p53 and p21 genes in time dependant manner
